The values below come from patent publication US9480638B2, “Cosmetic composition containing extracts of Adenophora triphylla var. japonica Hara, Angelica tenuissima and medicinal herbs” (AMOREPACIFIC CORPORATION, priority 2008, dated 2016).

A short description of assay [1]: Test of antioxidant effect (DPPH test). It counts as biochemical. The note with it: sample concentration at which absorbance at 540 nm is reduced by 50%; 100 μM DPPH in ethanol, 37° C., 30 minutes. As to the method:
To confirm the antioxidant effect of the composition according to the present invention, the DPPH oxidation inhibitory effect of the composition was measured. As a control, the synthetic antioxidant Trolox was used. […] The reaction solution was allowed to react at 37° C. for 30 minutes, and then measured for absorbance at 540 nm. As a control sample, the widely used synthetic antioxidant Trolox was used. In Table 1, IC50 means the sample concentration at which the absorbance is reduced by 50%.

Assay [2] deals with T1, PPARα (Mus musculus, UniProt P23204).
T1 sequence (P23204 1-468): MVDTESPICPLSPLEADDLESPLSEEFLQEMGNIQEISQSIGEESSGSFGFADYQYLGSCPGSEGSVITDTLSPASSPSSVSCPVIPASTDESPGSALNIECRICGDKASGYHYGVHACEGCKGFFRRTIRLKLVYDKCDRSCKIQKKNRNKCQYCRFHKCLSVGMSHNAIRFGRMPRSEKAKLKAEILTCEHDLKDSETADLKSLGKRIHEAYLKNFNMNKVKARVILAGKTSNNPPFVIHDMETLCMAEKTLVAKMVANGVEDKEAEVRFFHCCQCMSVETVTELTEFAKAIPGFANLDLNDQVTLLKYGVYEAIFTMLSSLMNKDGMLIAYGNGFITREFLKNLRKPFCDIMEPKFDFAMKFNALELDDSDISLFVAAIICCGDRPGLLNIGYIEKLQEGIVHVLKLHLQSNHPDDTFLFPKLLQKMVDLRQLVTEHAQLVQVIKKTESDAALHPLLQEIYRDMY
The assay is described as follows: PPARα activation, PPRE promoter/luciferase reporter in transfected HaCaT cells. The note with it: 10 uM positive control, PPARα expression plasmid + PPRE reporter, Control = 100.
Experimental: Human keratinocyte HaCaT cells were subcultured in 10% fetal bovine serum-containing DMEM medium, which is a phenol red-free medium, in order to eliminate the effect caused by the phenol red's estrogen.
HaCaT cells were seeded into a 24-well plate at a density of 5×10^4 cells/well, cultured for 24 hours, and then transiently transfected with the plasmid genes. […] As a negative control group, a group treated with ethanol used to dissolve the samples was used. After 24 hours of culture, the cells were washed with PBS, harvested and measured for luciferase activity.

`Cc1c(C)c2c(c(C)c1O)CCC(C)(C(=O)O)O2` (centres unmarked) [Trolox]: the “IC50 (DPPH analysis)” value in assay [1] was determined as 65 ppm.
Turning to `Cc1cccc(Nc2cc(Cl)nc(SCC(=O)O)n2)c1C` [WY-14643, Wy-14,643], in assay [2], the luciferase activity was determined as 300.
